# Several values for one entry are separate records, joined by “and”; a condition that tells them apart may be missing. Identical values can stand only once. Like-named read-outs stand apart in the source and are kept apart here.
# Key:
# SHR = test: Systolic blood pressure in SHR (tail cuff); format: in vivo, rat; details: 6 hr after single dose (3 mg/kg DCU or equimolar)
# Text: (§1) Animals. Male SHR and WKY rats 3-13 wks of age were purchased from Charles River Laboratories (Wilmington, Mass.) and housed in a controlled environment with 12 hr light/dark cycles and fed standard laboratory chow for 3 days before euthanasia. All animal use was approved by the University of California San Francisco Committee on Animal Research and followed the National Institutes of Health guidenlines for the care and use of laboratory animals. For isolation of kidney subcellular fractions, rats were anesthetized with methoxyflurane, the abdominal cavities were opened, and the kidneys were perfused with ice-cold saline. Perfused kidneys were rapidly removed, the cortex and medulla dissected out and immersed in liquid nitrogen. All tissue was stored at −80° C. until preparation of microsomes. In some cases WKY and SHR rats were housed in metabolic cages for up to three days and urine was collected over triphenylphosphine in 24 hr intervals. The urine volume was noted and aliquots were stored at −80° C. prior to extraction and quantitation of DHETs and EETs. […] Systolic blood pressure was measured at room temperature by a photoelectric tail cuff system (Model 179, IITC, Inc., Woodland Hills, Calif.) for up to four days following the dose of inhibitor. Blood pressures are reported as the average of three separate readings over a 30 min period. […]
# Human sEH (HsEH) = molecular target: T1, Human sEH (HsEH) (Homo sapiens, UniProt P34913); test: Inhibition of recombinant human sEH (HsEH); format: biochemical; details: HsEH 0.26 μM
# T1 sequence (P34913 1-555): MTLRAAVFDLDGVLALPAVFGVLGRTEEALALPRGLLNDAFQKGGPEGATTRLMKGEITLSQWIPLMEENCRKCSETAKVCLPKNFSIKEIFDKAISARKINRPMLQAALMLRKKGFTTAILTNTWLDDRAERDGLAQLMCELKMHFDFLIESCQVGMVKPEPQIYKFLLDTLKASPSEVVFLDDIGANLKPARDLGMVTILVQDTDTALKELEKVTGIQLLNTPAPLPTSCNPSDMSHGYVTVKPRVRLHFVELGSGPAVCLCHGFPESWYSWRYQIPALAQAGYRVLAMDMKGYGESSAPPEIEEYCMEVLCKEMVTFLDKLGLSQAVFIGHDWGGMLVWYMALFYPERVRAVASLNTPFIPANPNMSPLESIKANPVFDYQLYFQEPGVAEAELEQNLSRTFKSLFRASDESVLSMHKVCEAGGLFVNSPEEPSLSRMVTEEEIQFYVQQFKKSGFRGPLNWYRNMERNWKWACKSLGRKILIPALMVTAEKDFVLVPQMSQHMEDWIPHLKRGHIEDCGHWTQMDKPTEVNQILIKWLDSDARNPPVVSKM
# [1] = molecular target: T2, recombinant mouse sEH (MsEH) (Mus musculus, UniProt P34914); test: Inhibition of recombinant mouse sEH (MsEH); format: biochemical
# T2 sequence (P34914 1-554): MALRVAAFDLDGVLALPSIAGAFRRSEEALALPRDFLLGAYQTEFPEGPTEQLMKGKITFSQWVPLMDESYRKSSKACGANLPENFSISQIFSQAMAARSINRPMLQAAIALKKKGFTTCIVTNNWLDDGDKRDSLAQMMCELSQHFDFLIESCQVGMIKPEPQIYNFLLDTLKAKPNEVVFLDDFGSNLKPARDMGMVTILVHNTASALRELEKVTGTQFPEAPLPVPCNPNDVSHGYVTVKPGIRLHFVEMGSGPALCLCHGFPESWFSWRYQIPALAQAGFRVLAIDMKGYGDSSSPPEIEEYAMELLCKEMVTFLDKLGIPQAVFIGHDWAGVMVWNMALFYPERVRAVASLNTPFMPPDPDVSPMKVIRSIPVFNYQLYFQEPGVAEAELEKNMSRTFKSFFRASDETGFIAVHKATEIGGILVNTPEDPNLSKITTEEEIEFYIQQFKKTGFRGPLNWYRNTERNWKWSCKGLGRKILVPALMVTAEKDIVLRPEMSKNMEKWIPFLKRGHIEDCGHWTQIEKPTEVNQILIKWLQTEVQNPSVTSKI
# mEH = molecular target: T3, mEH (Rattus norvegicus, UniProt P07687); details: previous studies, Morisseau 1999; cited from earlier work
# T3 sequence (P07687 1-455): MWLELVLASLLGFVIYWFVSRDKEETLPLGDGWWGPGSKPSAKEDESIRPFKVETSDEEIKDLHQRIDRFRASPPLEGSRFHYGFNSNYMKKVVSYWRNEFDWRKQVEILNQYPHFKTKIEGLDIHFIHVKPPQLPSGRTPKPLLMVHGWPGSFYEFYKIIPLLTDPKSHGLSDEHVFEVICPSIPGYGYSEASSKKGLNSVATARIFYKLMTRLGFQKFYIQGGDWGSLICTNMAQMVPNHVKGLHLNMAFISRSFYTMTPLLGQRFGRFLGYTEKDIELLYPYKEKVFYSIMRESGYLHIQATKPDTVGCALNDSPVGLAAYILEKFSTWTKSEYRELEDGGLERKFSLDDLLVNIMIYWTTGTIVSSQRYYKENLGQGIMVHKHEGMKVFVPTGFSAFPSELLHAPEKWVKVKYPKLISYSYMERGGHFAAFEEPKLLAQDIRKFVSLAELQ
# [2] = test system: CYP epoxygenase or -hydroxylase; test: Renal microsomal arachidonic acid metabolism (CYP epoxygenase, hydroxylase); format: biochemical, rat; set-up: dose or concentration left out as unconfirmed
# Procedure: Renal microsomal arachidonic acid metabolism. Microsomes, cytosol, and S9 fractions were prepared from the renal cortex or outer medulla samples from a single animal as described previously (Kroetz, D. L. et al. Mol Pharmacol 52, 362-372 (1997), Su, P. et al. Am J Physiol 275, R426-438 (1998)). Reaction conditions for the in vitro determination of arachidonic acid epoxygenase activity, metabolite extraction and HPLC analysis were described in detail elsewhere (Su, P. et al. Am J Physiol 275, R426-438 (1998)).
# WKY rats = test: Systolic blood pressure in WKY rats (tail cuff); format: in vivo, rat; details: single 3 mg/kg dose
# Text: as §1
# [3] = Table 2, MsEH 0.13 μM, read-out: Mouse sEH IC50
# [4] = Table 1, MsEH 0.13 μM, read-out: Mouse sEH IC50
SMILES,IC50 (Human sEH (HsEH); Table 1) [nM],"IC50 [1, 4] [nM]",further results
CCCCCCCCCCCCNC(=O)NC1CCCCC1 [N-cyclohexyl-N′-dodecylurea],,,decrease in systolic blood pressure (SHR): 12±2 mm Hg and 12 mm Hg
"O=C(c1ccccc1)C1OC1c1ccccc1 (racemic) [R=C6H5, R′=C6H5, X—Y=C═O, ±]",,,"IC50 (Human sEH (HsEH); Table 2): 300 ± 100 nM; IC50 [1, 3]: 2900 ± 300 nM"
N#Cc1ccc(NC(=O)NC2CCCCC2)cc1 [compound 118],100 ± 10,60 ± 10,
CC(C)c1ccc(NC(=O)NCC2CCCCC2)cc1 [compound 180],100 ± 10,60 ± 10,
CCCCCCCCCCCCCCNC(=O)NC1CCCCC1 [compound 477],240 ± 10,110 ± 10,
O=C(NC1CCCCC1)OCc1ccc(-c2ccccc2)cc1 [compound 259],100 ± 20,450 ± 90,
O=C(Nc1ccc(Oc2ccccc2)cc1)NC1CCCCC1 [compound 140],100 ± 10,50 ± 10,
"O=C(c1ccccc1)C1OC1c1ccc(F)cc1 (racemic) [R=4-F-C6H4, R′=C6H5, X—Y=C═O, ±]",,,"IC50 (Human sEH (HsEH); Table 2): 300 ± 100 nM; IC50 [1, 3]: 1300 ± 300 nM"
O=C(Nc1cccc2ccccc12)NC1CCCCC1 [compound 59],480 ± 10,850 ± 20,
CCCCCCCCCNC(=O)NCCC [compound 429],1700 ± 400,380 ± 40,
O=C(NC1CCCCC1)OCCCCC1CCCCC1 [compound 276],340 ± 20,1100 ± 100,
CCCCCCCCCCNC(=O)Nc1cccc(Cl)c1 [compound 172],300 ± 10,120 ± 10,
CCOC(CCCNC(=O)Nc1cccc(Cl)c1)OCC [compound 167],3770 ± 30,390 ± 20,
Nc1ccc(CNC(=O)NC2CCCCC2)cc1 [compound 379],1500 ± 100,50 ± 10,
"COC(c1ccccc1)C1OC1c1ccccc1 (racemic) [R=C6H5, R′=C6H5, X—Y=CH—OCH3, ±]",,,"IC50 (Human sEH (HsEH); Table 2): 34000 ± 1000 nM; IC50 [1, 3]: 103000 ± 5000 nM"
CC(C)(C)OC(=O)NCCNC(=O)NC1CCCCC1 [compound 124],140 ± 10,50 ± 10,
CCCCCCCCCCCCNC(=O)NC(C)(C)CC [compound 562],15000 ± 3000,500 ± 100,
C[C@H](NC(=O)NC1CCCCC1)c1ccccc1 [compound 544],100 ± 10,50 ± 10,
O=C(NCCNc1ccccc1)NC1CCCCC1 [compound 463],8300 ± 400,900 ± 70,
CCCCCNC(=O)NC1CCCCC1 [compound 509],920 ± 80,60 ± 10,
CCCCCCCCNC(=O)NC1CCCCC1 [compound 168],120 ± 10,60 ± 10,
COc1ccc(NC(=O)NC2CCCCC2)cc1 [compound 67],230 ± 10,710 ± 40,

SMILES,IC50 (Human sEH (HsEH); Table 1) [nM],"IC50 [1, 4] [nM]",further results
CC1CCCCC1NC(=O)NC1CCCCC1 (stereo not shown) [compound 551],100 ± 10,50 ± 10,
"OC(c1ccccc1)C1OC1c1ccc(-c2ccccc2)cc1 (racemic) [R=4-C6H5—C6H4, R′=C6H5, X—Y=CH—OH, ±]",,,"IC50 (Human sEH (HsEH); Table 2): 720 ± 30 nM; IC50 [1, 3]: 510 ± 40 nM"
"OC(c1ccccc1)C1OC1c1ccc(F)cc1 (racemic) [R=4-F-C6H4, R′=C6H5, X—Y=CH—OH, ±]",,,"IC50 (Human sEH (HsEH); Table 2): 18000 ± 2000 nM; IC50 [1, 3]: 72000 ± 16000 nM"
O=C(NCc1ccc([N+](=O)[O-])cc1)NC1CCCCC1 [compound 341],4300 ± 400,2300 ± 300,
O=C(NCCC1CCCCC1)NC1CCCCC1 [compound 360],100 ± 10,50 ± 10,
O=C(NCc1ccncc1)NC1CCCCC1 [compound 188],2500 ± 30,730 ± 80,
CCC(C)NC(=O)NC1CCCCC1 (stereo not shown) [compound 479],5000 ± 100,600 ± 60,
O=C(NCCCc1ccccc1)Nc1ccccc1 [compound 430],550 ± 30,210 ± 20,
CCCCCCCNC(=O)NC1CCCCC1 [compound 508],100 ± 10,50 ± 10,
O=C(CCCCc1ccccc1)NC1CCCCC1 [compound 381],680 ± 30,60 ± 10,
CC(NC(=O)NC1CCCCC1)C1C2CC3CC(C2)CC1C3 (stereo not shown) [compound 358],180 ± 40,50 ± 10,
"O=C(NC1CCCCC1)NC1CCCCC1 [DCU, N,N′-dicyclohexylurea]",,,inhibition of mEH (mEH): does not inhibit mEH; effect on CYP epoxygenase or -hydroxylase activity [2]: no effect; effect on blood pressure in WKY (WKY rats): unaffected
CCNC(=O)OC1CCCCC1 [compound 255],2880 ± 40,,IC50 [1]: 480 ± 70 nM
O=C(NC(=O)c1ccc(Cl)cc1)NC1CCCCC1 [compound 257],100 ± 40,50 ± 10,
CCCCCCCCNC(=O)NCCC [compound 380],680 ± 30,730 ± 30,
O=C(NCCc1ccccc1)NC1CCCCC1 [compound 36],160 ± 20,60 ± 10,
O=C(Nc1ccncc1)NC1CCCCC1 [compound 100],150 ± 10,70 ± 10,
O=C(Nc1ccc(Cl)cc1)Nc1ccc(Cl)c(Cl)c1,120 ± 10,,IC50 [1]: 360 ± 20 nM
O=C(NCC1CCCCC1)C1CCCCC1 [compound 374],2030 ± 70,250 ± 10,
O=C(NCc1ccccc1)NC1CCCCC1 [compound 270],1900 ± 100,50 ± 10,
"COC(c1ccccc1)C1OC1c1ccc(-c2ccccc2)cc1 (racemic) [R=4-C6H5—C6H4, R′=C6H5, X—Y=CH—OCH3, ±]",,,"IC50 (Human sEH (HsEH); Table 2): 1360 ± 70 nM; IC50 [1, 3]: 480 ± 50 nM"
CCCCCCc1ccc(NC(=O)NC2CCCCC2)cc1 [compound 501],160 ± 10,50 ± 10,
